What all share (assay type): cell-based, HCV
Assay [1] has as its system genotype 1a transient replicon (1a-H77). The assay can be described thus: 1a transient replicon (luciferase reporter). To be noted: Hepatitis C virus, HuH-7 cells, 5% FBS. A general note: Replicon systems follow genome replication, usually without infectious particles.
Assay [2] concerns genotype 1b transient replicon. The assay can be described thus: 1b transient replicon (luciferase reporter). The settings on record: Hepatitis C virus, HuH-7 cells, 5% FBS.
Assay [3] concerns genotype 3a NS3 gene in transient replicon. The assay can be described thus: 3a transient replicon (luciferase reporter). To be noted: Hepatitis C virus, Huh-7, read-out: 3a transient replicon (nM).

Where only a bound is given, the exact number is not on record here.

Consider `Cc1cc(C(=O)N[C@H]2CCCCC/C=C\[C@@H]3C[C@@]3(C(=O)NS(=O)(=O)C3CC3)NC(=O)[C@@H]3C[C@@H](Oc4nc5cc(F)ccc5c5cc(OC(F)(F)F)ccc45)CN3C2=O)no1`, for which the EC50 in assay [1] was under 100 pM; in assay [2], 100 to 500 pM; in assay [3], over 1 nM.
`Cc1cc(C(=O)N[C@H]2CCCCC/C=C\[C@@H]3C[C@@]3(C(=O)NS(=O)(=O)C3CC3)NC(=O)[C@@H]3C[C@@H](Oc4nc5ccccc5c5cc(OC(F)(F)F)ccc45)CN3C2=O)no1`: the results for the EC50 in assay [1], in assay [2] and in assay [3] were under 100 pM, 100 to 500 pM and over 1 nM, respectively.
As to `Cn1ccc(C(=O)N[C@H]2CCCCC/C=C\[C@@H]3C[C@@]3(C(=O)NS(=O)(=O)C3CC3)NC(=O)[C@@H]3C[C@@H](Oc4nc5ccccc5c5cc(OC(F)(F)F)ccc45)CN3C2=O)n1`, the EC50 was 100 to 500 pM in assay [1], 100 to 500 pM in assay [2] and over 1 nM in assay [3].
As to `CC1(S(=O)(=O)NC(=O)[C@@]23C[C@H]2/C=C\CCCCC[C@H](NC(=O)c2ccon2)C(=O)N2C[C@H](Oc4nc5ccccc5c5cc(F)ccc45)C[C@H]2C(=O)N3)CC1`, the EC50 in assay [1] is under 100 pM; in assay [2], 100 to 500 pM; in assay [3], 0.5 to 1 nM.
Take `Cc1ccc(C(=O)N[C@H]2CCCCC/C=C\[C@@H]3C[C@@]3(C(=O)NS(=O)(=O)C3(C)CC3)NC(=O)[C@@H]3C[C@@H](Oc4nc5ccccc5c5cc(F)ccc45)CN3C2=O)o1`: the EC50 in assay [1] is 100 to 500 pM; in assay [2] it was 100 to 500 pM; in assay [3], 0.1 to 0.5 nM.
For `Cc1ccc(C(=O)N[C@H]2CCCCC/C=C\[C@@H]3C[C@@]3(C(=O)NS(=O)(=O)C3(C)CC3)NC(=O)[C@@H]3C[C@@H](Oc4nc5cc(F)ccc5c5cc(F)ccc45)CN3C2=O)s1`, the EC50 was 100 to 500 pM in assay [1], 100 to 500 pM in assay [2] and over 1 nM in assay [3].
Consider `CC1(S(=O)(=O)NC(=O)[C@@]23C[C@H]2/C=C\CCCCC[C@H](NC(=O)c2ccn(C(F)F)n2)C(=O)N2C[C@H](Oc4nc5cc(F)ccc5c5ccc(OC(F)(F)F)cc45)C[C@H]2C(=O)N3)CC1`, for which the EC50 was 100 to 500 pM in assay [1], 100 to 500 pM in assay [2] and over 1 nM in assay [3].
As to `Cn1ccc(C(=O)N[C@H]2CCCCC/C=C\[C@@H]3C[C@@]3(C(=O)NS(=O)(=O)C3(C)CC3)NC(=O)[C@@H]3C[C@@H](Oc4nc5ccccc5c5ccc(OC(F)(F)F)cc45)CN3C2=O)n1`, the EC50 in assay [1] fell in the range of 100 to 500 pM; in assay [2], 100 to 500 pM; in assay [3], 0.1 to 0.5 nM.
`Cc1ccc(C(=O)N[C@H]2CCCCC/C=C\[C@@H]3C[C@@]3(C(=O)NS(=O)(=O)C3(C)CC3)NC(=O)[C@@H]3C[C@@H](Oc4nc5ccccc5c5cc(F)ccc45)CN3C2=O)s1`: the figures for the EC50 in assay [1], in assay [2] and in assay [3] were 100 to 500 pM, 100 to 500 pM and over 1 nM, respectively.
As to `Cn1ccc(C(=O)N[C@H]2CCCCC/C=C\[C@@H]3C[C@@]3(C(=O)NS(=O)(=O)C3(C)CC3)NC(=O)[C@@H]3C[C@@H](Oc4nc5cc(F)ccc5c5ccc(OC(F)(F)F)cc45)CN3C2=O)n1`, the EC50 is under 100 pM in assay [1], 100 to 500 pM in assay [2] and 0.1 to 0.5 nM in assay [3].
With `Cc1cc(C(=O)N[C@H]2CCCCC/C=C\[C@@H]3C[C@@]3(C(=O)NS(=O)(=O)C3(C)CC3)NC(=O)[C@@H]3C[C@@H](Oc4nc5cc(F)ccc5c5ccc(OC(F)(F)F)cc45)CN3C2=O)no1`, the EC50 in assay [1] was under 100 pM; in assay [2] it was 100 to 500 pM; in assay [3], over 1 nM.
For `CC1(S(=O)(=O)NC(=O)[C@@]23C[C@H]2/C=C\CCCCC[C@H](NC(=O)c2ccn(C(F)F)n2)C(=O)N2C[C@H](Oc4nc5ccccc5c5ccc(OC(F)(F)F)cc45)C[C@H]2C(=O)N3)CC1`, in that order: 100 to 500 pM, 100 to 500 pM and over 1 nM.
For `Cc1cc(C(=O)N[C@H]2CCCCC/C=C\[C@@H]3C[C@@]3(C(=O)NS(=O)(=O)C3(C)CC3)NC(=O)[C@@H]3C[C@@H](Oc4nc5ccccc5c5ccc(OC(F)(F)F)cc45)CN3C2=O)no1`, in that order: under 100 pM, 100 to 500 pM and over 1 nM.
Take `Cc1ccc(C(=O)N[C@H]2CCCCC/C=C\[C@@H]3C[C@@]3(C(=O)NS(=O)(=O)C3(C)CC3)NC(=O)[C@@H]3C[C@@H](Oc4nc5ccccc5c5ccc(OC(F)(F)F)cc45)CN3C2=O)o1`: the EC50 in assay [1] was 100 to 500 pM; in assay [2] it was 100 to 500 pM; in assay [3], under 0.1 nM.
With `CC1(S(=O)(=O)NC(=O)[C@@]23C[C@H]2/C=C\CCCCC[C@H](NC(=O)[C@H](O)C(F)(F)F)C(=O)N2C[C@H](Oc4nc5cc(F)ccc5c5cc(F)ccc45)C[C@H]2C(=O)N3)CC1`, the EC50 was under 100 pM in assay [1], under 100 pM in assay [2] and over 1 nM in assay [3].
Turning to `CC1(S(=O)(=O)NC(=O)[C@@]23C[C@H]2/C=C\CCCCC[C@H](NC(=O)c2ccon2)C(=O)N2C[C@H](Oc4nc5cc(OC(F)(F)F)ccc5c5ccccc45)C[C@H]2C(=O)N3)CC1`, the EC50 in assay [1] is under 100 pM; in assay [2], under 100 pM; in assay [3], 0.1 to 0.5 nM.
On to `CC1(S(=O)(=O)NC(=O)[C@@]23C[C@H]2/C=C\CCCCC[C@H](NC(=O)c2ccon2)C(=O)N2C[C@H](Oc4nc5cc(OC(F)(F)F)ccc5c5cc(F)ccc45)C[C@H]2C(=O)N3)CC1`, for which the EC50 lay in the range of 100 to 500 pM in assay [1], 100 to 500 pM in assay [2] and 0.1 to 0.5 nM in assay [3].
Turning to `Cc1ccc(C(=O)N[C@H]2CCCCC/C=C\[C@@H]3C[C@@]3(C(=O)NS(=O)(=O)C3(C)CC3)NC(=O)[C@@H]3C[C@@H](Oc4nc5cc(OC(F)(F)F)ccc5c5cc(F)ccc45)CN3C2=O)s1`, the EC50 in assay [1] lay within 500 to 1000 pM; in assay [2], 100 to 500 pM; in assay [3] it was 0.1 to 0.5 nM.
`CC1(S(=O)(=O)NC(=O)[C@@]23C[C@H]2/C=C\CCCCC[C@H](NC(=O)[C@H](O)C(F)(F)F)C(=O)N2C[C@H](Oc4nc5cc(OC(F)(F)F)ccc5c5ccccc45)C[C@H]2C(=O)N3)CC1`: the results for the EC50 in assay [1], in assay [2] and in assay [3] were under 100 pM, under 100 pM and 0.5 to 1 nM, respectively.
`Cn1ccc(C(=O)N[C@H]2CCCCC/C=C\[C@@H]3C[C@@]3(C(=O)NS(=O)(=O)C3(C)CC3)NC(=O)[C@@H]3C[C@@H](Oc4nc5cc(F)ccc5c5cc(OC(F)(F)F)ccc45)CN3C2=O)n1`: the EC50 in assay [1] is 100 to 500 pM; in assay [2], 100 to 500 pM; in assay [3], over 1 nM.
Take `CC1(S(=O)(=O)NC(=O)[C@@]23C[C@H]2/C=C\CCCCC[C@H](NC(=O)c2ccon2)C(=O)N2C[C@H](Oc4nc5cc(F)ccc5c5cc(OC(F)(F)F)ccc45)C[C@H]2C(=O)N3)CC1`: the EC50 was under 100 pM in assay [1], 100 to 500 pM in assay [2] and over 1 nM in assay [3].
Turning to `CC1(S(=O)(=O)NC(=O)[C@@]23C[C@H]2/C=C\CCCCC[C@H](NC(=O)c2ccn(C(F)F)n2)C(=O)N2C[C@H](Oc4nc5cc(F)ccc5c5cc(OC(F)(F)F)ccc45)C[C@H]2C(=O)N3)CC1`, the EC50 is 100 to 500 pM in assay [1], 100 to 500 pM in assay [2] and over 1 nM in assay [3].
`COc1ccc2c(c1)nc(O[C@@H]1C[C@H]3C(=O)N[C@]4(C(=O)NS(=O)(=O)C5(C)CC5)C[C@H]4/C=C\CCCCC[C@H](NC(=O)c4ccn(C)n4)C(=O)N3C1)c1ccc(F)cc12`: the values for the EC50 in assay [1], in assay [2] and in assay [3] were 100 to 500 pM, 100 to 500 pM and 0.1 to 0.5 nM, respectively.
As for `COc1ccc2c(c1)nc(O[C@@H]1C[C@H]3C(=O)N[C@]4(C(=O)NS(=O)(=O)C5(C)CC5)C[C@H]4/C=C\CCCCC[C@H](NC(=O)c4ccon4)C(=O)N3C1)c1ccc(F)cc12`, the EC50 in assay [1] is under 100 pM; in assay [2] it was 100 to 500 pM; in assay [3] it was 0.1 to 0.5 nM.
For `COc1ccc2c(c1)nc(O[C@@H]1C[C@H]3C(=O)N[C@]4(C(=O)NS(=O)(=O)C5(C)CC5)C[C@H]4/C=C\CCCCC[C@H](NC(=O)c4ccn(C(F)F)n4)C(=O)N3C1)c1ccc(F)cc12`, in that order: 100 to 500 pM, 100 to 500 pM and 0.5 to 1 nM.
Turning to `CC1(S(=O)(=O)NC(=O)[C@@]23C[C@H]2/C=C\CCCCC[C@H](NC(=O)[C@H](O)C(F)(F)F)C(=O)N2C[C@H](Oc4nc5cc(OC(F)(F)F)ccc5c5ccc(F)cc45)C[C@H]2C(=O)N3)CC1`, the figures for the EC50 in assay [1], in assay [2] and in assay [3] were under 100 pM, under 100 pM and over 1 nM, respectively.
As for `Cc1ccc(C(=O)N[C@H]2CCCCC/C=C\[C@@H]3C[C@@]3(C(=O)NS(=O)(=O)C3(C)CC3)NC(=O)[C@@H]3C[C@@H](Oc4nc5cc(OC(F)(F)F)ccc5c5ccc(F)cc45)CN3C2=O)s1`, the values for the EC50 in assay [1], in assay [2] and in assay [3] were 100 to 500 pM, 100 to 500 pM and over 1 nM, respectively.
For the molecule `CC1(S(=O)(=O)NC(=O)[C@@]23C[C@H]2/C=C\CCCCC[C@H](NC(=O)c2ccon2)C(=O)N2C[C@H](Oc4nc5cc(OC(F)(F)F)ccc5c5ccc(F)cc45)C[C@H]2C(=O)N3)CC1`, the EC50 in assay [1] is under 100 pM; in assay [2], under 100 pM; in assay [3] it was 0.5 to 1 nM.
Consider `CC1(S(=O)(=O)NC(=O)[C@@]23C[C@H]2/C=C\CCCCC[C@H](NC(=O)c2cncs2)C(=O)N2C[C@H](Oc4nc5cc(OC(F)(F)F)ccc5c5ccc(F)cc45)C[C@H]2C(=O)N3)CC1`, for which the EC50 in assay [1] is 100 to 500 pM; in assay [2], 100 to 500 pM; in assay [3], over 1 nM.
On to `Cc1cc(C(=O)N[C@H]2CCCCC/C=C\[C@@H]3C[C@@]3(C(=O)NS(=O)(=O)C3(C)CC3)NC(=O)[C@@H]3C[C@@H](Oc4nc5cc(OC(F)(F)F)ccc5c5ccc(F)cc45)CN3C2=O)no1`, for which the EC50 in assay [1] was 100 to 500 pM; in assay [2], 100 to 500 pM; in assay [3], over 1 nM.
As for `Cn1ccc(C(=O)N[C@H]2CCCCC/C=C\[C@@H]3C[C@@]3(C(=O)NS(=O)(=O)C3(C)CC3)NC(=O)[C@@H]3C[C@@H](Oc4nc5cc(OC(F)(F)F)ccc5c5ccc(F)cc45)CN3C2=O)n1`, the EC50 in assay [1] was under 100 pM; in assay [2] it was under 100 pM; in assay [3], 0.1 to 0.5 nM.
In the case of `CC1(S(=O)(=O)NC(=O)[C@@]23C[C@H]2/C=C\CCCCC[C@H](NC(=O)[C@H](O)C(F)(F)F)C(=O)N2C[C@H](Oc4nc5ccccc5c5cc(F)ccc45)C[C@H]2C(=O)N3)CC1`, the figures for the EC50 in assay [1], in assay [2] and in assay [3] were under 100 pM, under 100 pM and over 1 nM, respectively.

For the origin of these results see patent US8951964B2, “Phenanthridine macrocyclic hepatitis C serine protease inhibitors” (priority 2010, dated 2015).
